In assay [1] the test system is ZR-751 breast cancer cell line. Put plainly: MTT assay, 48 h continuous drug exposure, ZR-751. It is filed as cell-based, human. Conditions: read-out: GI50 ZR-751. The procedure:
(§1) For each compound, dose response curves for each cell line were measured at a minimum of five concentrations at 10 fold dilutions. A protocol of 48 h continuous drug exposure was used and a MTT assay was used to estimate cell viability or growth. The percent of cell growth (GI50) compared with the control was calculated.
Background: Formazan colour is commonly taken as a measure of viable cells.

Assay [2] relates to A2780 ovarian cancer cell line. Put plainly: MTT assay, 48 h continuous drug exposure, A2780. Format: cell-based, human. Conditions: read-out: GI50 A2780. As for the experimental part:
as §1

The test system of assay [3] is Hop62 lung cancer cell line. Put plainly: MTT assay, 48 h continuous drug exposure, Hop62. It is filed as cell-based, human. Conditions: read-out: GI50 Hop62. The procedure:
as §1

The test system of assay [4] is Colo205 colon cancer cell line. Put plainly: MTT assay, 48 h continuous drug exposure, Colo205. It is filed as cell-based, human. As for the experimental part: (§2) Some of the C8-linked diaryl ether-PBD hybrids have been tested against eleven human tumour cell lines derived from seven cancer types (lung cancer, colon cancer, cervix, ovarian cancer, oral cancer, prostate cancer and breast cancer) as per Tata protocol as shown in Table 2. For each compound, dose response curves for each cell line were measured at a minimum of five concentrations at 10 fold dilutions. A protocol of 48 h continuous drug exposure was used and a MTT assay was used to estimate cell viability or growth. The percent of cell growth (GI50) compared with the control was calculated. Some of the compounds have been evaluated for their in vitro cytotoxicity in eleven cell lines from seven human cancer types. The results are expressed as GI50 determined relative to that of untreated control cells (Table-2).

Assay [5] relates to PC3 prostrate cancer cell line. The assay is described as follows: MTT assay, 48 h continuous drug exposure, PC3. Format: cell-based, human. Conditions: read-out: GI50 PC3. As for the experimental part:
as §1

Assay [6] concerns A549 lung cancer cell line. Put plainly: MTT assay, 48 h continuous drug exposure, A549. It is filed as cell-based, human. The procedure: as §2
Assay [7] relates to DWD oral cancer cell line. Put plainly: MTT assay, 48 h continuous drug exposure, DWD. Format: cell-based, human. As to conditions: read-out: GI50 DWD. The procedure:
as §1

In assay [8] the test system is MCF7 breast cancer cell line. The assay is described as follows: MTT assay, 48 h continuous drug exposure, MCF7. It is filed as cell-based, human. As for the experimental part: as §2
Assay [9] relates to Gurav oral cancer cell line. Put plainly: MTT assay, 48 h continuous drug exposure, Gurav. It is filed as cell-based, human. Conditions: read-out: GI50 Gurav. As for the experimental part:
as §1

The test system of assay [10] is duplex-form calf thymus DNA (CT-DNA). Put plainly: Thermal denaturation studies with calf thymus DNA (DNA binding affinity). As to conditions: [PBD]:[DNA] molar ratio 1:5, CT-DNA 100 μM, ligand 20 μM, sodium phosphate buffer pH 7.00; for (ΔTm ° C.) after incubation at 37° C. for 0 h: 0 h at 37° C.; for (ΔTm ° C.) after incubation at 37° C. for 18 h: 18 h at 37° C. The procedure: DNA Binding Affinity of Diaryl Ether Linked PBD Hybrids: Compounds have been subjected to thermal denaturation studies with duplex-form calf thymus DNA (CT-DNA) using a modification of a reported procedure (Newman, M. S. Carcinog-compr. Surv. 1976, 1, 203; ([…].; Loy, M.; Hoffman, Carcinog-compr. […] The DNA-PBD solutions have been incubated at 37° C. for 0 and 18 h prior to analysis. […] DNA helix→coil transition temperatures (Tm) have been obtained from the maxima in the d(A260)/dT derivative plots. […] The DNA binding activity for these novel C8-linked diaryl ether PBD hybrids has been examined by thermal denaturation studies using calf thymus (CT) DNA. […] The data for the compounds are included in Table 1 for comparison.

The test system of assay [11] is SiHa Cervix cancer cell line. Put plainly: MTT assay, 48 h continuous drug exposure, SiHa. It is filed as cell-based, human. Conditions: read-out: GI50 SiHa. The procedure:
as §1

Setting [12] is: breast cancer cell line, 48 h exposure, MTT.
Where [13] appears, read: ovarian cancer cell line, 48 h exposure, MTT.
The mark [14] stands for this setting: lung cancer cell line, 48 h exposure, MTT.
[15] abbreviates: prostrate cancer cell line, 48 h exposure, MTT.
Where [16] appears, read: oral cancer cell line, 48 h exposure, MTT.
[17] abbreviates: Cervix cancer cell line, 48 h exposure, MTT.

This note sets out measurements from patent publication US8809321B2, “Diaryl ether linked pyrrolo [2,1-c][1,4] benzodiazepine hybrids and process for the preparation thereof” (Council of Scientific and Industrial Research, priority 2011, dated 2014).

Like-named read-outs stand apart in the source and are kept apart here.

The GI50 is the concentration at which growth is held to half of that of the control. On to `COc1ccc(Oc2ccc(C(=O)N3CCN(CCCCCOc4cc5c(cc4OC)C(=O)N4CCC[C@H]4C=N5)CC3)cc2N)cc1OC` [23c], for which the 50% growth inhibitory concentration (GI50) in assay [1] (setting [12]) was found to be 190 nM; in [2] (setting [13]), 180 nM; in assay [3] (setting [14]), 2280 nM; in [4] (48 h exposure) it was 160 nM; in assay [5] (setting [15]), 170 nM; in assay [6] (48 h exposure), 180 nM. Moreover, the 50% growth inhibitory concentration (GI50) is 150 nM in assay [7] (setting [16]), 150 nM in assay [8] (48 h exposure), 120 nM in assay [9] (setting [16]) and 2470 nM in assay [11] (setting [17]). In [10], the “(ΔTm ° C.) after incubation at 37° C. for 0 h” value came to 3.6 °C. Moreover, the “(ΔTm ° C.) after incubation at 37° C. for 18 h” value in assay [10] came out at 4.5 °C.

As for `COc1cc2c(cc1OCCCCCN1CCN(C(=O)c3ccc(Oc4cc(OC)c(OC)c(OC)c4)c(N)c3)CC1)N=C[C@@H]1CCCN1C2=O` [24c], the GI50 in assay [1] (setting [12]) amounted to 180 nM; in assay [2] (setting [13]) it was 2000 nM; in assay [3] (setting [14]), 2260 nM; in assay [4] (48 h exposure), 540 nM; in assay [5] (setting [15]), 170 nM; in assay [6] (48 h exposure), 170 nM. In addition, the GI50 worked out at 160 nM in assay [7] (setting [16]), 170 nM in assay [8] (48 h exposure), 150 nM in assay [9] (setting [16]) and 2500 nM in [11] (setting [17]). Moreover, in assay [10], the “(ΔTm ° C.) after incubation at 37° C. for 0 h” value came to 4.5 °C. Besides, the “(ΔTm ° C.) after incubation at 37° C. for 18 h” value in assay [10] is 6.0 °C.

On to `COc1ccc(Oc2ccc(C(=O)N3CCN(CCCCCOc4cc5c(cc4OC)C(=O)N4CCC[C@H]4C=N5)CC3)cc2[N+](=O)[O-])cc1` [31c], for which the GI50 amounted to 180 nM in assay [1] (setting [12]); 190 nM in [2] (setting [13]); 190 nM in [3] (setting [14]); 170 nM in [4] (48 h exposure); 170 nM in assay [5] (setting [15]); 170 nM in assay [6] (48 h exposure). In addition, the GI50 in [7] (setting [16]) was found to be 180 nM; in assay [8] (48 h exposure), 180 nM; in assay [9] (setting [16]) it was 160 nM; in assay [11] (setting [17]), 3880 nM. Also, the “(ΔTm ° C.) after incubation at 37° C. for 0 h” value in assay [10] amounted to 3.9 °C. The “(ΔTm ° C.) after incubation at 37° C. for 18 h” value in assay [10] turned out to be 5.6 °C.

Take `COc1ccc(Oc2ccc(C(=O)N3CCN(CCCCCOc4cc5c(cc4OC)C(=O)N4CCC[C@H]4C=N5)CC3)cc2[N+](=O)[O-])cc1OC` [32c]: the GI50 in [1] (setting [12]) is 150 nM; in [2] (setting [13]), 150 nM; in assay [3] (setting [14]) it was 180 nM; in assay [4] (48 h exposure) it was 160 nM; in [5] (setting [15]), 190 nM; in assay [6] (48 h exposure), 140 nM. For the same compound, the GI50 in assay [7] (setting [16]) came out at 140 nM; in assay [8] (48 h exposure), 170 nM; in [9] (setting [16]), 120 nM; in assay [11] (setting [17]), 1850 nM. Also, in [10], the “(ΔTm ° C.) after incubation at 37° C. for 0 h” value was found to be 4.8 °C. In addition, the “(ΔTm ° C.) after incubation at 37° C. for 18 h” value in assay [10] was 7.3 °C.

For `COc1cc2c(cc1OCCCCCN1CCN(C(=O)c3ccc(Oc4cc(OC)c(OC)c(OC)c4)c([N+](=O)[O-])c3)CC1)N=C[C@@H]1CCCN1C2=O` [33c], the GI50 in assay [1] (setting [12]) turned out to be 2200 nM; in assay [2] (setting [13]), 2300 nM; in [3] (setting [14]), 2670 nM; in assay [4] (48 h exposure), 150 nM; in assay [5] (setting [15]) it was 2150 nM; in [6] (48 h exposure), 2240 nM. In addition, the GI50 in assay [7] (setting [16]) stood at 2100 nM; in assay [8] (48 h exposure) it was 180 nM; in assay [9] (setting [16]), 170 nM; in [11] (setting [17]), 2250 nM. Further, the “(ΔTm ° C.) after incubation at 37° C. for 0 h” value in [10] was found to be 4.2 °C. Also, the “(ΔTm ° C.) after incubation at 37° C. for 18 h” value in assay [10] is 6.1 °C.

For the compound `C1=CC2=CN=c3ccccc3=CN2C1` [DC-81, pyrrolo[2,1-c][1,4]benzodiazepine, reference compound], the GI50 worked out at 160 nM in assay [1] (Homo sapiens, ZR-75-1, 48 h); 150 nM in assay [2] (Homo sapiens, A2780, 48 h); 170 nM in [3] (Homo sapiens, HOP-62, 48 h); 110 nM in assay [4] (Homo sapiens, COLO 205, 48 h exposure); 170 nM in assay [5] (Homo sapiens, 48 h); 160 nM in assay [6] (Homo sapiens, A549, 48 h exposure). Further, the GI50 in assay [7] (Homo sapiens, 48 h) turned out to be 200 nM; in assay [8] (Homo sapiens, MCF7, 48 h exposure) it was 170 nM; in [9] (Homo sapiens, Gurav, 48 h) it was 1490 nM; in [11] (Homo sapiens, SiHa, 48 h), 140 nM. In assay [10], the “(ΔTm ° C.) after incubation at 37° C. for 0 h” value was determined as 0.3 °C. Moreover, the “(ΔTm ° C.) after incubation at 37° C. for 18 h” value in assay [10] came to 0.7 °C.
